Test results: patent publication US4328231A, “Method of treating psoriasis” (Richter Gedeon Vegyeszeti Gyar Rt., priority 1979, dated 1982)
Where a name gives a salt, the structure may show the parent alone.

How the values were obtained:
phosphodiesterase [1] = assay: Inhibition of phosphodiesterase isolated from rat brain tissue (radioisotopic technique, tritium-labelled c-AMP); assay type: biochemical; details: 20 minutes incubation, % of control
Experimental: Our model experiments were carried out by means of phosphodiesterase isolated from animal tissues. More particularly, the enzyme was isolated from the brain tissue of rats following the method of J. Schroder and H. V. Richenberg [Biochem. Biophys. Acta 302, 50 (1973)], whereupon the isolated phosphodiesterase was purified by the method of J. G. Hardman and E. W. Sutherland [J. Biol. Chem. 240, 3704 (1965)]. Finally, the activity of the purified enzyme was measured by the radioisotopic technique of G. Poch, in the presence of an excess amount of tritium-labelled c-AMP, in an incubator, initially without the inhibiting system and thereafter in the presence of a compound of the formula (I) as an inhibitor. The enzyme activity was determined after an incubation time of 20 minutes [N. S. Arch. Pharmacol. 268, 272 (1971)]. From the salts of the test compounds of the formula (I) aqueous 10^-3 molar stock solutions were prepared, their pH was adjusted to 4 to 5. To the incubated enzyme preparations suitable amounts of the stock solution were added in order to obtain a series of test solutions containing a compound of the formula (I) in a concentration of 10^-5, 5× 10^-5, 10^-4, 5×10^-4 and 10^-3 moles/lit. […] The degree of inhibition (decrease of enzyme activity) was expressed in % of the control (enzyme preparation containing no inhibitor).

phosphodiesterase [2] = assay: as above; assay type: biochemical; details: 20 minutes incubation, % of control; remark: listed apart in the source
psoriasis = details: Voorhees et al.; cited from earlier work
phosphodiesterase [3] = details: Voorhees et al.; cited from earlier work
adenyl cyclase = details: Voorhees et al.; cited from earlier work

Row | Compound | Inhibition (%) obtained by 1 × 10^-4 moles/lit. concentrations of the test compounds (phosphodiesterase [1]) [%] | Inhibition (%) obtained by 1 × 10^-5 moles/lit. concentrations of the test compounds (phosphodiesterase [1]) [%] | Inhibition (%) obtained by 5 × 10^-5 moles/lit. concentrations of the test compounds (phosphodiesterase [1]) [%] | Inhibition (%) obtained by 5 × 10^-6 moles/lit. concentrations of the test compounds (phosphodiesterase [2]) [%] | influencing psoriasis (psoriasis) | inhibition of the function of phosphodiesterase (phosphodiesterase [3]) | stimulation of the function of adenyl cyclase (adenyl cyclase)
1 | CC[C@@]12C=C(C(=O)OC)n3c4c(c5ccc(OC)cc53)CCN(CCC1)[C@H]42 [Apovincine-KHSO4] | 71.8 | 49.0 | 59.4 | 36.6 |  |  | 
2 | Cn1c(=O)c2[nH]cnc2n(C)c1=O [Theophylline] |  |  |  |  | succeeded in influencing psoriasis | inhibit the function of phosphodiesterase | 
3 | CC[C@@]12C=C(C(=O)NN)n3c4c(c5ccccc53)CCN(CCC1)[C@H]42 [Apovincaminic acid-hydrazide, apovincaminic acid hydrazide] | 57.0 |  | 32.0 |  |  |  | 
4 | CC[C@@]12C=C(C(N)=O)n3c4c(c5ccccc53)CCN(CCC1)[C@H]42 [Apovincaminic acid amide] | 76.9 | 22.0 | 60.0 | 10.0 |  |  | 
5 | CC[C@@]12C=C(C(=O)OC)n3c4c(c5ccc(OC)cc53)CCN(CCC1)[C@H]42 [Apovincine-tartrate] | 81.6 | 48.7 | 76.9 | 38.1 |  |  | 
6 | COc1ccc(Cc2nccc3cc(OC)c(OC)cc23)cc1OC [Papaverine, reference compound] | 56.4 |  | 36.4 |  | succeeded in influencing psoriasis | inhibit the function of phosphodiesterase | 
7 | CCOC(=O)C1=C[C@]2(CC)CCCN3CCc4c(n1c1cc(OC)ccc41)[C@@H]32 [Apovincinic acid ethyl ester tartrate] | 58.6 | 23.7 | 44.0 |  |  |  | 
8 | NC[C@H](O)c1ccc(O)c(O)c1 [norepinephrine] |  |  |  |  | succeeded in influencing psoriasis |  | stimulate the function of adenyl cyclase
9 | CC[C@@]12C=C(C(=O)OC)n3c4c(c5ccccc53)CCN(CCC1)[C@H]42 [Apovincamine] | 54.8 | 20.3 | 33.5 | 21.9 |  |  | 
10 | CC[C@@]12C=C(COC(C)=O)n3c4c(c5ccc(OC)cc53)CCN(CCC1)[C@H]42 [Tartrate salt of apovincinol-acetate] | 62.3 | 34.8 | 45.2 | 30.9 |  |  | 
